Assay results from ChEMBL document CHEMBL1201862, “PubChem BioAssay data set” (2004).
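Tested at 5 concentrations; 48 h exposure; 96-well plates; endpoints linearly interpolated, else capped at highest concentration. Here, GI50 denotes the concentration required for 50% inhibition of growth.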 Active and inactive are the calls of the source. Cut-off read from the data, not from the text of the source: active = GI50 up to about 1.1 µM and inactive = higher.

Experiments:
Experiment in all cases: inhibition of tumour cell growth, NCI panel, 48 h
[1] = tested on: NCI/ADR-RES
[2] = tested on: OVCAR-5
[3] = tested on: U-251
[4] = tested on: NCI-H23
[5] = tested on: KM12
[6] = tested on: TK-10
[7] = tested on: M14
[8] = tested on: DU-145
[9] = tested on: LOX IMVI
[10] = tested on: SK-MEL-28
[11] = tested on: SK-MEL-5
[12] = tested on: SW-620
[13] = tested on: HOP-62
[14] = tested on: SF-295
[15] = tested on: PC-3
[16] = tested on: A549
[17] = tested on: Hs-578T
[18] = tested on: CCRF-CEM
[19] = tested on: NCI-H522
[20] = tested on: RXF 393

Measured: GI50

CC1=CC(=O)/C(=C/N2C(=O)CNC2=S)C(=O)O1
inactive: [1] > 100 µM | [2] > 100 µM | [3] > 100 µM | [4] > 100 µM | [5] > 100 µM | [6] > 100 µM | [7] > 100 µM | [8] > 100 µM | [9] > 100 µM | [10] > 100 µM | [11] > 100 µM | [12] > 100 µM | [13] > 100 µM | [14] > 100 µM | [15] > 100 µM | [16] > 100 µM

OCC1(CNc2cc(Cl)ncn2)CCC1
inactive: [1] > 100 µM | [2] > 100 µM | [3] > 100 µM | [17] > 100 µM | [4] > 100 µM | [5] > 100 µM | [6] > 100 µM | [18] > 100 µM | [8] > 100 µM | [9] > 100 µM | [10] > 100 µM | [11] > 100 µM | [12] > 100 µM | [13] > 100 µM | [19] > 100 µM | [14] > 100 µM | [15] > 100 µM | [16] > 100 µM

O=C(OCC1OC2OC(c3ccccc3)(n3ccc4c([N+](=O)[O-])ccnc43)OC2C1OC(=O)c1ccccc1)c1ccccc1 (configuration not stated)
inactive: [1] > 100 µM | [2] > 100 µM | [3] > 100 µM | [17] 64.7 µM | [4] > 100 µM | [5] > 100 µM | [6] > 100 µM | [7] > 100 µM | [18] > 100 µM | [8] > 100 µM | [9] > 100 µM | [10] > 100 µM | [11] > 100 µM | [12] > 100 µM | [13] > 100 µM | [14] > 100 µM | [15] > 100 µM | [16] > 100 µM

CCS(=O)(=O)c1c2cc(OC)ccc2nc2ccc(OC)cc12
inactive: [1] > 100 µM | [2] > 100 µM | [3] > 100 µM | [4] > 100 µM | [5] > 100 µM | [6] > 100 µM | [7] > 100 µM | [18] > 100 µM | [8] > 100 µM | [9] > 100 µM | [10] > 100 µM | [12] > 100 µM | [13] > 100 µM | [20] > 100 µM | [19] > 100 µM | [14] > 100 µM | [15] > 100 µM | [16] > 100 µM

O=C1/C(=C/c2ccc(OC(=O)c3ccc(Cl)cc3)cc2)CCC/C1=C\c1ccc(OC(=O)c2ccc(Cl)cc2)cc1
inactive: [1] > 100 µM | [2] > 100 µM | [3] 64.3 µM | [17] 23.8 µM | [4] > 100 µM | [5] > 100 µM | [6] 94.8 µM | [7] > 100 µM | [18] > 100 µM | [8] > 100 µM | [9] > 100 µM | [10] > 100 µM | [11] > 100 µM | [12] > 100 µM | [13] 19.4 µM | [19] > 100 µM | [15] > 100 µM | [16] > 100 µM

CC(C)(C)NCc1cc(C(C)(C)C)cc(-c2ccc(Cl)cc2)c1O
inactive: [1] 14.6 µM | [2] 13.8 µM | [3] 11.9 µM | [17] 13.3 µM | [4] 12.6 µM | [5] 13.2 µM | [6] 12 µM | [7] 15 µM | [8] 11.7 µM | [10] 13.8 µM | [11] 16.2 µM | [13] 6.14 µM | [19] 11 µM | [14] 17.3 µM | [16] 16 µM

Cc1ccc(SCC(OCn2cnc3c(N)ncnc32)[C@H](C)F)cc1 (some centres not stated)
inactive: [1] 73.1 µM | [2] > 100 µM | [3] > 100 µM | [17] > 100 µM | [4] > 100 µM | [5] > 100 µM | [6] > 100 µM | [7] > 100 µM | [18] > 100 µM | [8] > 100 µM | [9] > 100 µM | [10] > 100 µM | [11] 41.4 µM | [12] > 100 µM | [13] > 100 µM | [19] > 100 µM | [14] > 100 µM | [15] > 100 µM | [16] > 100 µM

O=C1CC(NCc2ccccc2)c2c(Cl)sc(Cl)c21 (configuration not stated)
inactive: [1] 28.1 µM | [2] 39.8 µM | [3] 18.3 µM | [17] 41.8 µM | [4] 17.4 µM | [5] 29.9 µM | [6] 31.3 µM | [7] 21.8 µM | [18] 2.54 µM | [8] 35.8 µM | [9] 5.05 µM | [10] 28.1 µM | [11] 27 µM | [12] 17.7 µM | [13] 29 µM | [19] 6.05 µM | [14] 38.7 µM | [15] 17.3 µM | [16] 33.3 µM

O=c1n(CCO)nc2n1CCCN2
inactive: [2] > 100 µM | [3] > 100 µM | [17] > 100 µM | [4] > 100 µM | [5] > 100 µM | [6] > 100 µM | [7] > 100 µM | [18] > 100 µM | [8] > 100 µM | [9] > 100 µM | [10] > 100 µM | [11] > 100 µM | [12] > 100 µM | [13] > 100 µM | [20] > 100 µM | [14] > 100 µM | [15] > 100 µM | [16] > 100 µM

CCOC(=O)c1ccc(-c2cc(C)[nH]n2)[nH]1
inactive: [1] > 100 µM | [2] > 100 µM | [3] > 100 µM | [4] > 100 µM | [5] 62.5 µM | [6] > 100 µM | [7] > 100 µM | [18] > 100 µM | [8] > 100 µM | [9] > 100 µM | [10] > 100 µM | [11] > 100 µM | [12] > 100 µM | [13] > 100 µM | [20] > 100 µM | [19] > 100 µM | [14] > 100 µM | [15] > 100 µM | [16] > 100 µM

O=C(CC(=O)CC(O)(C(F)(F)F)C(F)(F)F)CC(O)(C(F)(F)F)C(F)(F)F
inactive: [1] > 10 µM | [2] > 10 µM | [3] > 10 µM | [17] > 10 µM | [4] > 10 µM | [5] > 10 µM | [6] > 10 µM | [7] > 10 µM | [18] > 10 µM | [8] > 10 µM | [9] > 10 µM | [10] > 10 µM | [11] > 10 µM | [12] > 10 µM | [13] > 10 µM | [20] > 10 µM | [19] > 10 µM | [14] > 10 µM | [16] > 10 µM
